Source: ChEMBL document CHEMBL1136539, “N-ferrocenylmethyl, N'-methyl-2-substituted benzimidazolium iodide salts with in vitro activity against the Leishmania infantum parasite strain L1” (Bioorg Med Chem Lett, 2003)

Tested on: Leishmania infantum
Experiment: Inhibitory activity against Leishmania infantum parasite L1 strain
Assay type: functional, organism-based

## C[C@@H]1[C@H](O)[C@@H](C)/C=C/C=C/C=C/C=C/C=C/C=C/C=C/[C@H](O[C@@H]2O[C@H](C)[C@@H](O)[C@H](N)[C@@H]2O)C[C@@H]2O[C@](O)(C[C@@H](O)C[C@@H](O)[C@H](O)CC[C@@H](O)C[C@@H](O)CC(=O)O[C@H]1C)C[C@H](O)[C@H]2C(=O)O [AMPHOTERICIN B]
  IC50: < 6.25 µM
